Data published in patent US20250026769A1, “PAPD5 INHIBITORS AND METHODS OF USE THEREOF” (The Children's Medical Center Corporation, priority 2021, published 2025).
Where two headings read alike, the source gives them in different places.

Key:
[1] = tested on: TERC 3′ ends in human CD19+ cells recovered from mice xenotransplanted with HSPCs; assay: TERC 3′ end processing in vivo in human CD19+ cells after xenotransplantation into NBSGW mice; parameters: species or system immunodeficient NBSGW mice with human HSPCs; conditions: for aberrant TERC oligo-adenylation in xenotransplanted PARN-deficient human blood cells: oral, RACE amplicon sequencing
Source text: (§1) Example 168—Restoration of TERC 3′ end processing in vivo in human blood cells after xenotransplantation into immunodeficient mice. To determine the efficacy of orally administered exemplified compounds in primary human HSPCs and blood cells in restoring TERC processing in vivo, highly-efficient CRISPR-Cas9 ribonucleoprotein transduction was employed to disrupt the PARN gene in primary human CD34+ HSPCs or the control locus AAVS1. These genome-edited human HSPCs were xenotransplanted into immunodeficient NOD,B6.SCID Il2rg−/− KitW4l/W41 (NBSGW) mice, which engraft human HSPCs without exposure to radiation or chemotherapy. Six to ten weeks after xenotransplantation, exemplified compounds were administered for 4 to 7 days alongside controls. Thereafter, human hematopoietic cells were recovered from mouse bone marrow, and engraftment was analyzed by flow cytometry. Engrafted human hematopoietic cells were sorted for lineage markers, and CD19+ cells were used for analysis of restoration of TERC 3′ end processing by RNA-ligation mediated 3′ RACE.

[2] = tested on: TERC 3′ end processing in primary CD34+ human hematopoietic stem and progenitor cells (HSPCs); assay: TERC 3′ end processing (RACE) in CRISPR/Cas9-engineered PARN-deficient primary CD34+ HSPCs; type: cell-based; conditions: for TERC 3′ end processing by RACE at 100 nM: day 5 (FIG. 40B); for TERC 3′ end processing by RACE at 1 μM: day 5 (FIG. 40A)
Source text: Example 167—Restoration of TERC 3′ end processing in primary CD34+ human hematopoietic stem and progenitor cells (HSPCs). To determine the efficacy of exemplified compounds in a disease-relevant stem cell population, we employed a highly-efficient CRISPR-Cas9 ribonucleoprotein transduction strategy to disrupt the PARN gene in primary human CD34+ hematopoietic stem and progenitor cells (HSPCs), or the control locus AAVS1. FIGS. 40A and 40B show extended TERC forms in CRISPR-Cas9 engineered HSPCs deficient in PARN.

rPAPD5 = biological target: T1, rPAPD5 (Homo sapiens, UniProt Q8NDF8); assay: differential scanning fluorimetry (DSF) binding and stabilization of rPAPD5; conditions: for ΔTm at 100 µM: read-out: ΔTm at 100 μM; for ΔTm at 1 µM: 1 μM test compound (Table 2a), read-out: ΔTm at 1 μM
T1 construct: made in house
T1 sequence (Q8NDF8 68-698 isoform Q8NDF8-5 limits assumed): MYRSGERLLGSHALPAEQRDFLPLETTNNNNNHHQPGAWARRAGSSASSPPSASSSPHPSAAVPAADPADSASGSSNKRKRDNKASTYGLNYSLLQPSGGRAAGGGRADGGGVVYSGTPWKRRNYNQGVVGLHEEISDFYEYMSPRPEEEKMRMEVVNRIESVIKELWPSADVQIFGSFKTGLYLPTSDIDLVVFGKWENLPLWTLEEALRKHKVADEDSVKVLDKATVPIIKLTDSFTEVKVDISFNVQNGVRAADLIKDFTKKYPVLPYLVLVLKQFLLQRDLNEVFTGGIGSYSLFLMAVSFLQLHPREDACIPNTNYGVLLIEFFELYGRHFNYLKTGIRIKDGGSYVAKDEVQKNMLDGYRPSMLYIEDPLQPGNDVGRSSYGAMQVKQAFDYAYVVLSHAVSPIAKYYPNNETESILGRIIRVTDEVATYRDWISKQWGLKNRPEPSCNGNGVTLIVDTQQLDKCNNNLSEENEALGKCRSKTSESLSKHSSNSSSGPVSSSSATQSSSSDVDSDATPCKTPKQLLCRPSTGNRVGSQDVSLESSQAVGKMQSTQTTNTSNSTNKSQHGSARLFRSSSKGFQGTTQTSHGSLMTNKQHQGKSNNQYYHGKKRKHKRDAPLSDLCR
Summary of the method: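 Differential scanning fluorimetry was used to measure how test compounds bind and thermally stabilize rPAPD5. The reaction contained SYPRO orange dye diluted 1:5000 in […] of buffer with […], 25 mM Tris-HCl, 5 mM MgCl2 and 50 mM KCl. ΔTm was calculated relative to a DMSO control.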

[3] = tested on: TERC 3′ end processing in DC patient iPSCs; assay: TERC 3′ end processing by RACE in DC patient / PARN-mutant iPSCs; type: cell-based, human; conditions: for minimal effective concentration: Homo sapiens, iPSC, patient iPSCs, concentration class at which activity is seen, read-out: iPSC-based RACE activity
Summary of the method: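 Activity binned by concentration giving effect in DC patient iPSCs: "+" at 1 μM, "++" above 1 nM and below 1 μM, "+++" below 1 nM; ND, not determined.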

[4] = tested on: telomere length in DC patient iPSCs; assay: telomere length / telomere elongation in DC patient iPSCs; type: cell-based, human; conditions: for minimal effective concentration: Homo sapiens, iPSC, patient iPSCs, concentration class at which activity is seen, read-out: iPSC-based Telomere length
Description: Compound 266A had activity ˜2-logs higher in the in vitro RNA oligoadenylation assay compared to the parental compound cmpd. 1, approximating the activity of RG7834 (FIG. 7). […] 1. Compounds 295A and 296A had activity 2-3 logs higher in DC patient iPSCs, showing TERC maturation at 1 nM, similar to RG7834 (FIG. 6). […] Referring to Table 1D, “+” refers to activity at 1 μM, “++” refers to activity above 1 nM and below 1 μM, and “+++” refers to activity at <1 nM, “ND” refers to not determined.

[5] = tested on: engraftment of CD45+, CD19+, CD34+ human blood cells; assay: engraftment of human blood cells in xenotransplanted mice by flow cytometry; type: in vivo, immunodeficient NBSGW mice with human HSPCs
Source text: as §1

[6] = tested on: hepatitis B surface antigen (HBSAg) from HepG2.2.15 cells, a hepatitis B virus-expressing cell line; assay: HBsAg ELISA in supernatant of HepG2.2.15 cells; type: cell-based; conditions: HepG2.2.15, 96 h
Summary of the method: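 HepG2.2.15 cells plated at 50,000/well, then exposed the next day to 3-fold compound dilutions from 100 μM to 333 pM, with DMSO vehicle as control. After 4 days at 37 °C, HBsAg in the supernatant was measured by ELISA. IC50 obtained by nonlinear fitting of averaged replicates.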

[7] = 32 mg/kg/dose twice daily for 11 doses, with 250 μM in drinking water
[8] = 32 mg/kg/dose twice daily for 11 doses (FIG. 41D)
[9] = 100 μM test compound, shift vs DMSO control
[10] = 32 mg/kg/dose twice daily for 11 doses
[11] = 10 μM test compound (Table 2a), read-out: ΔTm at 10 μM
[12] = 32 mg/kg/dose every other day for 4 days
[13] = 10 μM test compound, shift vs DMSO control, read-out: ΔTm (Table 2, starred: the compound was tested at 10 μM)

**Q.** For `O=C(O)c1cc(Cl)ccc1Nc1c(C2CCOCC2)cnc2ccc(Cl)cc12` [Compound 296A, 5-chloro-2-[(6-chloro-3-tetrahydropyran-4-yl-4-quinolyl)amino]benzoic acid], which “TERC 3′ ends in human CD19+ cells (RACE)” value ([1]; 32 mg/kg/dose twice daily for 11 doses, with 250 μM in drinking water (FIG. 41A)) is on record?
**A.** maturation of TERC 3′ ends

**Q.** What about the “aberrant TERC oligo-adenylation in xenotransplanted PARN-deficient human blood cells” value [1, 7] of the same molecule?
**A.** significantly reversed

**Q.** And the “TERC 3′ end processing by RACE at 100 nM” value [2]?
**A.** maturation of TERC 3′ end processing

**Q.** What about the “TERC 3′ end processing by RACE at 1 μM” value [2] of the same molecule?
**A.** maturation of TERC 3′ end processing

**Q.** And the ΔTm at 100 µM (rPAPD5)?
**A.** > 5 °C

**Q.** What about the “concentration showing maturation of TERC 3′ end processing by RACE” value ([3]; DC patient iPSCs) of the same molecule?
**A.** 1 nM

**Q.** What about the “concentration at which telomere elongation was observed” value ([4]; DC patient iPSCs, after 3-4 weeks of cell culture) of the same molecule?
**A.** 1 nM

**Q.** What about the “engraftment of CD45+, CD19+, CD34+ human blood cells” value (shortened to “engraftment of CD45+, CD19+”) [5, 7] of the same molecule?
**A.** no change in engraftment

**Q.** What about the IC50 [6] of the same molecule?
**A.** 5 nM

**Q.** With `O=C(O)c1cc(Cl)ccc1Nc1c(C2=CCOCC2)cnc2ccc(Cl)cc12` [Compound 297A, 5-chloro-2-[[6-chloro-3-(3,6-dihydro-2H-pyran-4-yl)-4-quinolyl]amino]benzoic acid] as the molecule, how does the “TERC 3′ ends in human CD19+ cells (RACE)” value [1, 8] read?
**A.** maturation of TERC 3′ ends

**Q.** What about the ΔTm at 100 µM (rPAPD5; [9]) of the same molecule?
**A.** > 5 °C

**Q.** And the “engraftment of CD45+, CD19+” value [5, 10]?
**A.** no change in engraftment

**Q.** What about the IC50 [6] of the same molecule?
**A.** 42 nM

**Q.** Which “TERC 3′ ends in human CD19+ cells (RACE)” value ([1]; 1 mM in drinking water for 7 days (FIG. 41C)) does the source give for `O=C(O)c1cc(Cl)ccc1Nc1c(N2CCOCC2)cnc2ccc(Cl)cc12` [Compound 339A, 5-chloro-2-[(6-chloro-3-morpholino-4-quinolyl)amino]benzoic acid] here?
**A.** maturation of TERC 3′ ends

**Q.** And the “TERC 3′ end processing by RACE at 100 nM” value [2]?
**A.** maturation of TERC 3′ end processing

**Q.** What about the “TERC 3′ end processing by RACE at 1 μM” value [2] of the same molecule?
**A.** maturation of TERC 3′ end processing

**Q.** What about the ΔTm at 1 µM (rPAPD5) of the same molecule?
**A.** > 5 °C

**Q.** What about the ΔTm at 10 µM (rPAPD5; [11]) of the same molecule?
**A.** > 5 °C

**Q.** What about the ΔTm at 100 µM (rPAPD5; [9]) of the same molecule?
**A.** > 5 °C

**Q.** What about the minimal effective concentration [3] of the same molecule?
**A.** < 0.001 µM

**Q.** And the minimal effective concentration [4]?
**A.** < 0.001 µM

**Q.** What about the “engraftment of CD45+, CD19+” value ([5]; 1 mM in drinking water for 7 days) of the same molecule?
**A.** no change in engraftment

**Q.** And the IC50 [6]?
**A.** 75 nM

**Q.** Which results are given for `O=C(O)c1cc(Cl)ccc1Nc1c(C2=CCC(F)(F)CC2)cnc2ccc(Cl)cc12` [Compound 344A, 5-chloro-2-[[6-chloro-3-(4,4-difluorocyclohexen-1-yl)-4-quinolyl]amino]benzoic acid]?
**A.** TERC 3′ ends in human CD19+ cells (RACE) ([1]; 32 mg/kg/dose every other day for 4 days (FIG. 41B)): maturation of TERC 3′ ends; aberrant TERC oligo-adenylation in xenotransplanted PARN-deficient human blood cells [1, 12]: significantly reversed; ΔTm at 1 µM (rPAPD5): > 5 °C; ΔTm at 10 µM (rPAPD5; [11]): > 5 °C; ΔTm at 10 µM (rPAPD5; [13]): > 5 °C; minimal effective concentration [3]: < 0.001 µM; minimal effective concentration [4]: < 0.001 µM; engraftment of CD45+, CD19+, CD34+ human blood cells [5, 12]: no change in engraftment; IC50 [6]: 600 nM

**Q.** Which results are given for `O=C(O)c1cc(Cl)ccc1Nc1c(N2CCC(F)CC2)cnc2ccc(Cl)cc12` [Compound 392A, 5-chloro-2-[[6-chloro-3-(4-fluoro-1-piperidyl)-4-quinolyl]amino]benzoic acid]?
**A.** TERC 3′ ends in human CD19+ cells (RACE) [1, 8]: maturation of TERC 3′ ends; TERC 3′ end processing by RACE at 100 nM [2]: maturation of TERC 3′ end processing; TERC 3′ end processing by RACE at 1 μM [2]: maturation of TERC 3′ end processing; ΔTm at 1 µM (rPAPD5): > 5 °C; ΔTm at 10 µM (rPAPD5; [11]): > 5 °C; ΔTm at 10 µM (rPAPD5; [13]): > 5 °C; minimal effective concentration [3]: < 0.001 µM; minimal effective concentration [4]: < 0.001 µM; engraftment of CD45+, CD19+, CD34+ human blood cells [5, 10]: no change in engraftment; IC50 [6]: 95 nM

**Q.** For `O=C(O)c1cc(Cl)ccc1Nc1c(CN2CCSCC2)cnc2ccc(Cl)cc12` [Compound 428A, 5-chloro-2-[[6-chloro-3-(thiomorpholinomethyl)-4-quinolyl]amino]benzoic acid], which “TERC 3′ end processing by RACE at 1 μM” value [2] is on record?
**A.** maturation of TERC 3′ end processing

**Q.** And the ΔTm at 1 µM (rPAPD5)?
**A.** > 5 °C

**Q.** What about the ΔTm at 10 µM (rPAPD5; [11]) of the same molecule?
**A.** > 5 °C

**Q.** What about the ΔTm at 100 µM (rPAPD5; [9]) of the same molecule?
**A.** > 5 °C

**Q.** And the minimal effective concentration [3]?
**A.** < 0.001 µM

**Q.** And the minimal effective concentration [4]?
**A.** < 0.001 µM

**Q.** And the IC50 [6]?
**A.** 22 nM
